Read-outs that look alike come from different tables or passages of the source.
Assays:
[1] = target: purified human autoBACE-2 (Homo sapiens (Human), UniProt Q9Y5Z0); test: BACE-2 Assay (BACE-HTRF assay); type: biochemical; details: Ki calculated from IC50 using the Cheng-Prusoff equation; read-out: BACE2 Ki
Method in brief: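 Endpoint proteolysis of a QSY7/europium FRET peptide by purified human autoBACE-2, 5% DMSO final, read by time-resolved fluorescence at 620 nm after 320 nm excitation.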

[2] = target: soluble human BACE1 catalytic domain (Homo sapiens (Human), UniProt P56817); test: BACE1 HTRF FRET Assay
[3] = read-out: BACE1 Ki, Ki calculated from IC50 using the Cheng-Prusoff equation

Chain of purified human autoBACE-2 (Q9Y5Z0 63-473): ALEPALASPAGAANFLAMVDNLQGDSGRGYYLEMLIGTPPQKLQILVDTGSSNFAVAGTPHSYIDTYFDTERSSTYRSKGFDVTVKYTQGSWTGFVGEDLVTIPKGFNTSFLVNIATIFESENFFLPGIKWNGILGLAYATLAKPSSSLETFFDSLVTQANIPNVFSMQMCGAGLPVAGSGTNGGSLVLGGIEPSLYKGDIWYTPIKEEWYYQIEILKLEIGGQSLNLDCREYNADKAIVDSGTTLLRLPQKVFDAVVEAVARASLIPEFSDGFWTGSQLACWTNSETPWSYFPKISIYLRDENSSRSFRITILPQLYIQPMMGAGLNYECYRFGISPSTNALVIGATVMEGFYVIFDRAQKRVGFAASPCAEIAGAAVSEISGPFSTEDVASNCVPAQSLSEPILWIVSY
Chain of soluble human BACE1 catalytic domain (P56817 75-416): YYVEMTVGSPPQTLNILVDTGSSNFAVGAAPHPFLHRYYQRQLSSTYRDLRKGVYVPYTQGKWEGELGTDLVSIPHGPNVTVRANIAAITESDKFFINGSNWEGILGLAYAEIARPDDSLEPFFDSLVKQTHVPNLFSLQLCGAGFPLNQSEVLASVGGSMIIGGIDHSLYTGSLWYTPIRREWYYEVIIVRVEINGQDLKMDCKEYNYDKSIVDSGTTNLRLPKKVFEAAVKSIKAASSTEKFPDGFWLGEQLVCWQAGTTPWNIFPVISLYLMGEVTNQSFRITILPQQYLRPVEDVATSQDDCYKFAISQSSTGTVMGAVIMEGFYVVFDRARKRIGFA

Ki [1]	Ki [2, 3]	Ki ([2]; read-out: BACE1 Ki)	Ki ([2]; BACE1 Ki (nM))	inhibition at 1 µM ([2]; read-out: BACE1 % Inh. at 1 μM, at 1 μM)	SMILES
18 nM	82 nM				CC(F)(F)C(=O)Nc1ccc(F)c([C@]2(C)CS(=O)(=O)C(C)(C)C(=N)N2)c1 [Example 9ai]
12 nM	112 nM				COCC(=O)Nc1cc(F)c(F)c([C@]2(C)CS(=O)(=O)C(C)(C)C(=N)N2)c1 [Example 9bk]
11 to 100 nM	72.7 nM				C[C@@]1(c2ccccn2)C(=N)N[C@](C)(c2cc(NC(=O)c3ccc(Cl)cn3)ccc2F)CS1(=O)=O [Example 9cw-b]
< 200 nM	63 nM				CC1(C)C(=N)N[C@](C)(c2sc(-c3cncc(C#N)c3)cc2Cl)CS1(=O)=O [Example 23]
≤ 10 nM		92.2 nM			CC1(C)C(=N)N[C@](C)(c2sc(-c3cncc(Cl)c3)cc2Cl)CS1(=O)=O [Example 27l]
517 nM			5280 nM		COc1ccccc1Nc1ccc(F)c(C2(C)CS(=O)(=O)C(C)(C)C(=N)N2)n1 (stereo not drawn) [Example 30a]
101 to 700 nM	522 nM				COc1cnc(C(=O)Nc2ccc(F)c([C@]3(C)CS(=O)(=O)[C@](C)(C(C)C)C(=N)N3)c2)cn1 [Example 9ec-b]
10 nM		58.5 nM			C[C@@]1(c2sc(-c3cccc(C#N)c3)cc2F)CS(=O)(=O)[C@@](C)(c2cccc(F)c2)C(=N)N1 [Example 27br-a]
445 nM				43%	CC1(C)C(=N)N[C@](C)(c2cc(-c3cc(F)cc(-c4nnco4)c3)ccc2F)CS1(=O)=O [Example 16a]
8 nM	26.9 nM				CC1(C)C(=N)N[C@](C)(c2sc(C(=O)Nc3cccc(Cl)n3)cc2Cl)CS1(=O)=O [Example 20]
77 nM	2720 nM				CC1(C)C(=N)N[C@](C)(c2sc(C(=O)NCc3cc(Cl)ccn3)cc2Cl)CS1(=O)=O [Example 22u]
≤ 10 nM		64.9 nM			CC1(C)C(=N)N[C@](C)(c2sc(-c3cc(Cl)cc(C#N)c3)cc2Cl)CS1(=O)=O [Example 27s]
101 to 700 nM	175 nM				C[C@@]1(c2cccc(F)c2)C(=N)N[C@](C)(c2cc(NC(=O)c3ccc(C(F)(F)F)cn3)ccc2F)CS1(=O)=O [Example 9de-b]
22 nM	82 nM				CC1(C)C(=N)N[C@](C)(c2cc(NC(=O)c3ccno3)ccc2F)CS1(=O)=O [Example 9ax]
11 to 100 nM	46.7 nM				COc1cccc2cc(C(=O)Nc3ccc(F)c([C@]4(C)CS(=O)(=O)[C@@](C)(CC5CCOCC5)C(=N)N4)c3)[nH]c12 [Example 9cu-a]
≤ 20 nM		76 nM			CC1(C)C(=N)N[C@](C)(c2sc(-c3cccc(C#N)c3)cc2F)CS1(=O)=O [Example 27aq]
< 200 nM	172 nM				CC1(C)C(=N)N[C@](C)(c2sc(-c3ccc(F)c(C(F)(F)F)c3)cc2Cl)CS1(=O)=O [Example 27a]
1 nM	21 nM				CC1(C)C(=N)N[C@](C)(c2cc(NC(=O)c3ncc(F)cc3F)cc(F)c2F)CS1(=O)=O [Example 9ba]
13 nM	9.6 nM				CC1(C)C(=N)N[C@](C)(c2cc(NC(=O)c3ccc(C(F)(F)F)cn3)cc(Cl)c2F)CS1(=O)=O [Example 9v]
40 nM	25.7 nM				CC1(C)C(=N)N[C@](C)(c2nc(NC(=O)c3ccc(C(F)(F)F)cn3)ccc2F)CS1(=O)=O [Example 9cf]
11 to 100 nM	6 nM				C[C@@]1(c2cc(NC(=O)c3ccc(C(F)(F)F)cn3)ccc2F)CS(=O)(=O)[C@@](C)(c2ccccn2)C(=N)N1 [Example 9cz-a]
